According to patent US9433686B2, “Methods for treating castration resistant prostate cancer and metastasis by reducing B-cell number and/or function” (The Regents of the University of California, priority 2011, dated 2016):

Assays:
STAT3 [1] = test: STAT3 phosphorylation in myc-CaP tumors after castration (immunohistochemistry); type: in vivo, FVB mice; details: phospho-STAT3 staining
Excerpt: FIG. 14. STAT3 activation and its role in CR-CaP emergence. A,B WT+Ikkβ^F/F and WT+Ikkβ^Δ/Δ radiation chimeras (n=10 each group) bearing myc-CaP allografts were established as above and injected with poly(IC) to delete IKKβ[…] in BMDC before castration or sham operation. After one month, mice were sacrificed for analysis. A. Lymphocytes were isolated from indicated tissues and analyzed for IKKβ expression. B. Tumor samples were immunoblotted to determine expression and phosphorylation of indicated signaling proteins. C,D FVB mice bearing myc-CaP tumors were castrated. Starting one day before castration, the mice (n=10 per group) were injected twice daily with vehicle or AG490, an inhibitor of STAT3 phosphorylation. C. One week after castration, tumors were collected, paraffin-embedded, sectioned and stained with phospho-STAT3 antibody. D. Tumor volume was measured every 2-3 days as above. Results are averages±s.e.m. P values were determined and are indicated as above.
FIG. 23. LTβ is required for IKKα nuclear localization and STAT3 phosphorylation. Mice carrying Myc-CaP tumors were castrated and treated with vehicle or LTβR-Ig as described above. Paraffin-embedded sections were analyzed for IKKα nuclear localization and STAT3 phosphorylation.
Mouse prostate and CaP tissues and dissected metastatic tumors were immersed in 10% neutral buffered formalin before sectioning and paraffin embedding. […]

myc-CaP tumors = test: CR-CaP re-growth (tumor volume) of s.c. myc-CaP allografts after castration; type: in vivo, FVB mice; details: castrated mice bearing s.c. myc-CaP tumors
Method: FIG. 4. IKKβ-dependent lymphotoxin production by tumor-infiltrating B cells stimulates IKKα-dependent androgen-free survival. A. RNA from splenic B cells of Ikkβ^F/F and Ikkβ^Δ/Δ mice was analyzed for LTα and LTβ expression as above. Results are averages±s.d. (n=3). B. Lethally irradiated FVB males were reconstituted with BM from B-Ltβ^−/− or T-Ltβ^−/− mice (n=6 per group). After 8 weeks, myc-CaP tumors were established, mice were castrated and tumor volume was measured as above. Results are averages±s.e.m. C. FVB mice (n=6 each group) bearing myc-CaP tumors were castrated and given hIgG or LTβR-Ig (100 μg) every 5 days, starting 4 days before castration. Tumor volume was measured as above. Results are averages±s.e.m. […] Mice were castrated and tumor volume was measured. […] After 6 hrs, the cells were cultured with or without flutamide (10 μM) in the absence or presence of LTα2β1, and cell number was determined. […] After 12 hrs, cells were stimulated for 1 hr with LTα2β1, collected, divided into cytosolic (C) and nuclear (N) fractions and IKKα and histone H3 distribution was determined. In A, B, C, D and E, P values were determined and are indicated as above.
FIG. 8. […] Five months later, mice were sacrificed and prostate tumor weight and incidence of lymph node, lung and liver metastases were determined. […] Tumor volume in above mice was measured every 2-3 days. […] Tumor volume was measured as above. […]

IKK = test: IκBα phosphorylation in PMA-stimulated Myc-CaP cells; type: cell-based, mouse; details: 1 hr pre-treatment, AG490 100 μM, PMA 10 ng/ml 10 min
Method: (§1) FIG. 15. Selectivity of IKKβ and STAT3 phosphorylation inhibitors. A. Myc-CaP cells were cultured to 60% confluency and pre-treated for 1 hr with AG490 (100 μM) or ML120B (20 μM), followed by stimulation with PMA (10 ng/ml) for 10 min. Cells were collected and IκBα phosphorylation was analyzed. B. Myc-CaP cells were pre-treated with AG490 or ML120B and after 1 hr, were stimulated with IL-6 (20 ng/ml) for 30 min. Cells were collected and STAT3 phosphorylation was analyzed by immunoblotting.
(§2) Total tissue RNA was prepared using RNAeasy (Qiagen). Quantitative PCR was performed as described^38. Cells and tumors were lysed and analyzed by SDS-polyacrylamide gel electrophoresis and immunoblotting^38 with antibodies to histone H3, α-tubulin, STAT3 (Santa Cruz Biotechnology), ERK, phospho-ERK, AKT, phospho-AKT, phospho-STAT3 (Cell Signaling). Nuclear extracts were prepared and analyzed for NF-κB DNA-binding as described^39.

STAT3 [2] = test: STAT3 phosphorylation in IL-6-stimulated Myc-CaP cells (immunoblotting); type: cell-based, mouse; details: 1 hr pre-treatment, IL-6 20 ng/ml 30 min
Method: as §1, §2

Structure (SMILES) | STAT3 activation (phosphorylation) in CaP cells of tumors (STAT3 [1]) | CR-CaP growth / appearance after castration (tumor volume) (myc-CaP tumors) | IKK activation (IκBα phosphorylation) (IKK) | STAT3 activation (phosphorylation) (STAT3 [2])
N#C/C(=C/c1ccc(O)c(O)c1)C(=O)NCc1ccccc1 [A490] | inhibitable | delayed | did not inhibit | 
COc1c(Cl)cc2c([nH]c3cnccc32)c1NC(=O)c1cccnc1C [ML120B, N-(6-chloro-7-methoxy-9H-β-carbolin-8-yl)-2-methylnicotinamide] |  |  |  | did not inhibit
